According to ChEMBL document CHEMBL5579888, “A Comparative Study on the DNA Interactions and Biological Activities of Benzophenanthridine and Protoberberine Alkaloids” (J Nat Prod, 2024):
Activity calls are given as the source filed them. No cut-off for these calls is given here.

How the values were obtained:
Quadruplex DNA [1] = assay: Binding affinity to human G4-quadruplex 22AG DNA 5'- AGGGTTAGGGTTAGGGTTAGGG -3' at 20 uM by UV-Visible absorption spectroscopic analysis; type: nucleic-acid assay
Quadruplex DNA [2] = assay: Binding affinity to human G4-quadruplex Oxy28 DNA 5'- GGGGTTTTGGGGTTTTGGGGTTTTGGGG -3' at 20 uM by UV-Visible absorption spectroscopic analysis; type: nucleic-acid assay
Quadruplex DNA [3] = assay: Binding affinity to human G4-quadruplex Pu27 DNA 5'- TGGGGAGGGTGGGGAGGGTGGGGAAGG-3' at 20 uM by UV-Visible absorption spectroscopic analysis; type: nucleic-acid assay
Quadruplex DNA [4] = assay: Binding affinity to human G4-quadruplex Bcl2 DNA 5'- CGGGCGCGGGAGGAAGGGGGCGGGAGC-3' at 20 uM by UV-Visible absorption spectroscopic analysis; type: nucleic-acid assay
Quadruplex DNA [5] = assay: Binding affinity to human G4-quadruplex KRAS DNA 5'- AGGGCGGTGTGGGAAGAGGGAAGAGGGGGAGG-3' at 20 uM by UV-Visible absorption spectroscopic analysis; type: nucleic-acid assay
Quadruplex DNA [6] = assay: Binding affinity to human G4-quadruplex VEGF DNA 5'- GGGCGGGCCGGGGGCGGG-3' at 20 uM by UV-Visible absorption spectroscopic analysis; type: nucleic-acid assay
Quadruplex DNA [7] = assay: Binding affinity to human G4-quadruplex c-kit2 DNA 5'- CGGGCGGGCGCGAGGGAGGGT-3' at 20 uM by UV-Visible absorption spectroscopic analysis; type: nucleic-acid assay
dsDNA [8] = assay: Binding affinity to double stranded DNA ssab (unknown origin) assessed as change in fluorescence intensity at 1 uM incubated for 0.5 hrs by fluorescence spectra analysis; type: nucleic-acid assay
Quadruplex DNA [9] = assay: Binding affinity to human G4-quadruplex Oxy28 DNA 5'- GGGGTTTTGGGGTTTTGGGGTTTTGGGG -3' assessed as change in fluorescence intensity at 1 uM incubated for 0.5 hrs by fluorescence spectra analysis; type: nucleic-acid assay
Quadruplex DNA [10] = assay: Binding affinity to human G4-quadruplex Bcl2 DNA 5'- CGGGCGCGGGAGGAAGGGGGCGGGAGC-3' assessed as change in fluorescence intensity at 1 uM incubated for 0.5 hrs by fluorescence spectra analysis; type: nucleic-acid assay
Quadruplex DNA [11] = assay: Binding affinity to human G4-quadruplex KRAS DNA 5'- AGGGCGGTGTGGGAAGAGGGAAGAGGGGGAGG-3' assessed as change in fluorescence intensity at 1 uM incubated for 0.5 hrs by fluorescence spectra analysis; type: nucleic-acid assay
Quadruplex DNA [12] = assay: Binding affinity to human G4-quadruplex c-kit2 DNA 5'- CGGGCGGGCGCGAGGGAGGGT-3' assessed as change in fluorescence intensity at 1 uM incubated for 0.5 hrs by fluorescence spectra analysis; type: nucleic-acid assay
dsDNA [13] = assay: Binding affinity to double stranded DNA ssab (unknown origin) assessed as change in fluorescence intensity at 1 uM incubated for 0.5 hrs in presence of different concentrations of DNA by fluorescence spectra analysis; type: nucleic-acid assay
Quadruplex DNA [14] = assay: Binding affinity to human G4-quadruplex Pu27 DNA 5'- TGGGGAGGGTGGGGAGGGTGGGGAAGG-3' assessed as change in fluorescence intensity at 1 uM incubated for 0.5 hrs in presence of different concentrations of DNA by fluorescence spectra analysis; type: nucleic-acid assay
Quadruplex DNA [15] = assay: Binding affinity to human G4-quadruplex Bcl2 DNA 5'- CGGGCGCGGGAGGAAGGGGGCGGGAGC-3' assessed as change in fluorescence intensity at 1 uM incubated for 0.5 hrs in presence of different concentrations of DNA by fluorescence spectra analysis; type: nucleic-acid assay
Quadruplex DNA [16] = assay: Binding affinity to human G4-quadruplex KRAS DNA 5'- AGGGCGGTGTGGGAAGAGGGAAGAGGGGGAGG-3' assessed as change in fluorescence intensity at 1 uM incubated for 0.5 hrs in presence of different concentrations of DNA by fluorescence spectra analysis; type: nucleic-acid assay
Quadruplex DNA [17] = assay: Binding affinity to human G4-quadruplex VEGF DNA 5'- GGGCGGGCCGGGGGCGGG-3' assessed as change in fluorescence intensity at 1 uM incubated for 0.5 hrs in presence of different concentrations of DNA by fluorescence spectra analysis; type: nucleic-acid assay
Quadruplex DNA [18] = assay: Binding affinity to human G4-quadruplex Oxy28 DNA 5'- GGGGTTTTGGGGTTTTGGGGTTTTGGGG -3' at 10 uM by CD spectra analysis; type: nucleic-acid assay
Quadruplex DNA [19] = assay: Binding affinity to human G4-quadruplex KRAS DNA 5'- AGGGCGGTGTGGGAAGAGGGAAGAGGGGGAGG-3' at 10 uM by CD spectra analysis; type: nucleic-acid assay
Salmon testes DNA = assay: Displacement of Hoechst 33342 from salmon sperm DNA incubated for 0.5 hrs by SpectraMax M2 microplate reader analysis; type: nucleic-acid assay, Salmo salar
Quadruplex DNA [20] = assay: Displacement of ThT from human G4-quadruplex Oxy28 DNA 5'- GGGGTTTTGGGGTTTTGGGGTTTTGGGG -3' incubated for 0.5 hrs by SpectraMax M2 microplate reader analysis; type: nucleic-acid assay
Quadruplex DNA [21] = assay: Displacement of ThT from human G4-quadruplex Pu27 DNA 5'- TGGGGAGGGTGGGGAGGGTGGGGAAGG-3' incubated for 0.5 hrs by SpectraMax M2 microplate reader analysis; type: nucleic-acid assay
Quadruplex DNA [22] = assay: Displacement of ThT from human G4-quadruplex c-kit2 DNA 5'- CGGGCGGGCGCGAGGGAGGGT-3' incubated for 0.5 hrs by SpectraMax M2 microplate reader analysis; type: nucleic-acid assay
dsDNA [23] = assay: Binding affinity to double stranded DNA ssab (unknown origin) incubated for 0.5 hrs in presence of different concentration DNA by fluorescence spectra analysis; type: nucleic-acid assay
dsDNA [24] = assay: Binding affinity to double stranded DNA ssab1 (unknown origin) incubated for 0.5 hrs in presence of different concentration DNA by fluorescence spectra analysis; type: nucleic-acid assay
dsDNA [25] = assay: Binding affinity to double stranded DNA AT9 (unknown origin) incubated for 0.5 hrs in presence of different concentration DNA by fluorescence spectra analysis; type: nucleic-acid assay
dsDNA [26] = assay: Binding affinity to double stranded DNA AT17 (unknown origin) incubated for 0.5 hrs in presence of different concentration DNA by fluorescence spectra analysis; type: nucleic-acid assay
dsDNA [27] = assay: Binding affinity to double stranded DNA AT15-2AT (unknown origin) incubated for 0.5 hrs in presence of different concentration DNA by fluorescence spectra analysis; type: nucleic-acid assay
dsDNA [28] = assay: Binding affinity to double stranded DNA AT15-6AT (unknown origin) incubated for 0.5 hrs in presence of different concentration DNA by fluorescence spectra analysis; type: nucleic-acid assay
A-375 [29] = assay: Induction of cell cycle arrest in human A-375 cells assessed assessed as cell accumulation at G0/G1 phase at 5 uM incubated for 24 hrs by propidium iodide staining based flow cytometry (reference value: 54.25 %); type: functional
A-375 [30] = assay: Induction of cell cycle arrest in human A-375 cells assessed assessed as cell accumulation at G2/M phase at 5 uM incubated for 24 hrs by propidium iodide staining based flow cytometry (reference value: 15.70 %); type: functional
Quadruplex DNA [31] = assay: Displacement of ThT from human G4-quadruplex Bcl2 DNA 5'- CGGGCGCGGGAGGAAGGGGGCGGGAGC-3' incubated for 0.5 hrs by SpectraMax M2 microplate reader analysis; type: nucleic-acid assay

| SMILES | Activity (Quadruplex DNA [1]) | Activity (Quadruplex DNA [2]) | Activity (Quadruplex DNA [3]) | Activity (Quadruplex DNA [4]) | Activity (Quadruplex DNA [5]) | Activity (Quadruplex DNA [6]) | Activity (Quadruplex DNA [7]) | Activity (dsDNA [8]) | Activity (Quadruplex DNA [9]) | Activity (Quadruplex DNA [10]) | Activity (Quadruplex DNA [11]) | Activity (Quadruplex DNA [12]) | Activity (dsDNA [13]) | Kd (Quadruplex DNA [14]) [nM] | Kd (Quadruplex DNA [15]) [nM] | Kd (Quadruplex DNA [16]) [nM] | Activity (Quadruplex DNA [18]) | Activity (Quadruplex DNA [19]) | DC50 (Salmon testes DNA) [nM] | DC50 (Quadruplex DNA [20]) [nM] | further results |
| --- | --- | --- | --- | --- | --- | --- | --- | --- | --- | --- | --- | --- | --- | --- | --- | --- | --- | --- | --- | --- | --- |
| COc1ccc2cc3[n+](cc2c1OC)CCc1cc2c(cc1-3)OCO2 [BERBERINE] | Active | Active | Active | Active | Active | Active | Active | inactive | Active | Active | Active | Active | inactive | 5400 | 2440 | 1890 | inactive | inactive | 56600 | 3100 | Kd (Quadruplex DNA [17]): 4960 nM; DC50 (Quadruplex DNA [21]): 540 nM; DC50 (Quadruplex DNA [22]): 690 nM; EC50 (dsDNA [23]): 1040 nM; EC50 (dsDNA [24]): 450 nM; Activity (dsDNA [25]): inactive; EC50 (dsDNA [26]): 720 nM; EC50 (dsDNA [27]): 150 nM; EC50 (dsDNA [28]): 400 nM; Activity (A-375 [29]): 56.99%; Activity (A-375 [30]): 14.59%; Kd (Quadruplex DNA [31]): 1840 nM |
| C[n+]1cc2c3c(ccc2c2ccc4cc5c(cc4c21)OCO5)OCO3 [SANGUINARIUM] | Active | Active | Active | Active | Active | Active | Active | Active | Active | Active | Active | Active | Active | 7190 | 11000 | 2790 | inactive | inactive | 5700 | 740 | Activity (Quadruplex DNA [17]): inactive; DC50 (Quadruplex DNA [21]): 260 nM; DC50 (Quadruplex DNA [22]): 250 nM; EC50 (dsDNA [23]): 740 nM; EC50 (dsDNA [24]): 790 nM; Activity (dsDNA [25]): inactive; EC50 (dsDNA [26]): 2330 nM; EC50 (dsDNA [27]): 1070 nM; EC50 (dsDNA [28]): 1230 nM; Activity (A-375 [29]): 40.85%; Activity (A-375 [30]): 27.86%; Kd (Quadruplex DNA [31]): 440 nM |
| COc1ccc2c(c[n+](C)c3c4cc5c(cc4ccc23)OCO5)c1OC [CHELERYTHRINE] | Active | Active | Active | Active | Active | Active | Active | Active | Active | Active | Active | Active | Active | 5290 | 5800 | 1070 | inactive | inactive | 6470 | 1150 | Activity (Quadruplex DNA [17]): inactive; DC50 (Quadruplex DNA [21]): 480 nM; DC50 (Quadruplex DNA [22]): 550 nM; EC50 (dsDNA [23]): 1060 nM; EC50 (dsDNA [24]): 970 nM; Activity (dsDNA [25]): inactive; EC50 (dsDNA [26]): 3890 nM; EC50 (dsDNA [27]): 1120 nM; EC50 (dsDNA [28]): 1090 nM; Activity (A-375 [29]): 36.15%; Activity (A-375 [30]): 30.83%; Kd (Quadruplex DNA [31]): 860 nM |
| c1c2c(cc3c1OCO3)-c1cc3ccc4c(c3c[n+]1CC2)OCO4 [COPTISINE] | Active | Active | Active | Active | Active | Active | Active | inactive | Active | Active | Active | Active | inactive | 2170 | 1150 | 1130 | inactive | inactive | 38100 | 580 | Kd (Quadruplex DNA [17]): 3390 nM; DC50 (Quadruplex DNA [21]): 140 nM; DC50 (Quadruplex DNA [22]): 170 nM; EC50 (dsDNA [23]): 5570 nM; EC50 (dsDNA [24]): 9390 nM; EC50 (dsDNA [25]): 7120 nM; EC50 (dsDNA [26]): 7780 nM; EC50 (dsDNA [27]): 3920 nM; EC50 (dsDNA [28]): 8040 nM; Activity (A-375 [29]): 57.31%; Activity (A-375 [30]): 14.48%; Kd (Quadruplex DNA [31]): 350 nM |
